Assays:
Assay type in all cases: in vivo
[1] = tested on: crabgrass; assay: Herbicidal activity test against upland field weeds (foliar treatment test); set-up: key to Foliar treatment herbicidal activity, Crabgrass: 0 (no control); 100 (complete control); conditions: scale 0-100; for pest or weed control at 50 g/ha / Foliar treatment herbicidal activity, Crabgrass: 50 g ai/ha
Procedure, shortened: (§1)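 Greenhouse-grown plants (30±5 °C, 14/10 h light/dark) foliar hand-sprayed with compound in 50% acetone, 0.1% Tween-20 at 50 or 75 g a.i./ha. Control visually scored 0 (none) to 100 (complete) versus untreated after 14 days, or 21 days if needed.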

[2] = tested on: bindweed; assay: Herbicidal activity test against upland field weeds (soil treatment test); set-up: key to Soil treatment herbicidal activity, Bindweed: 0 (no control); 100 (complete control); conditions: scale 0 (no control) to 100 (complete control)
Procedure, shortened: (§2)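 Pre-emergence soil surface spray, day after sowing, into sandy loam pots with fertilizer; compounds at 50 or 75 g a.i./ha in 50% acetone, 0.1% Tween-20. Greenhouse at 30±5 °C, 14/10 h light/dark; visual control rated 0–100 against untreated after 14 days (21 if needed).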

[3] = tested on: wheat; assay: Phytotoxicity test for upland field crops (foliar treatment test); set-up: key: 0 (no harm); 9 (complete withered)
Procedure, shortened: (§3)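 Crops grown in greenhouse pots (30±5 °C, 14/10 h light) were foliar-sprayed with compound at 19–300 g a.i./ha in 33% acetone/0.1% Tween-20. Phytotoxicity scored 0 (no harm) to 9 (complete withering) versus untreated control at 7 and 14 days, 21 if needed.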

[4] = tested on: cotton; assay: as above; set-up: key: 0 (no harm); 9 (complete withered)
Procedure, shortened: as §3

[5] = tested on: corn; assay: as above; set-up: key: 0 (no harm); 9 (complete withered)
Procedure, shortened: as §3

[6] = tested on: rice; assay: as above; set-up: key: 0 (no harm); 9 (complete withered)
Procedure, shortened: as §3

[7] = tested on: soybean; assay: as above; set-up: key: 0 (no harm); 9 (complete withered)
Procedure, shortened: as §3

[8] = tested on: barnyard grass; assay: Herbicidal activity test against upland field weeds (soil treatment test); set-up: key to Soil treatment herbicidal activity, barnyard grass: 0 (no control); 100 (complete control); conditions: scale 0 (no control) to 100 (complete control)
Procedure, shortened: as §2

[9] = tested on: cocklebur; assay: Herbicidal activity test against upland field weeds (foliar treatment test); set-up: key to Foliar treatment herbicidal activity, Cocklebur: 0 (no control); 100 (complete control); conditions: scale 0-100; for pest or weed control at 50 g/ha / Foliar treatment herbicidal activity, Cocklebur: 50 g ai/ha
Procedure, shortened: as §1

[10] = tested on: velvetleaf; assay: as above; set-up: key to Foliar treatment herbicidal activity, velvet leaf: 0 (no control); 100 (complete control)
Procedure, shortened: as §1

[11] = tested on: indian jointvetch; assay: as above; conditions: scale 0-100
Procedure, shortened: as §1

[12] = tested on: quack grass; assay: Herbicidal activity test against upland field weeds (soil treatment test); set-up: key to Soil treatment herbicidal activity, quack grass: 0 (no control); 100 (complete control); conditions: scale 0 (no control) to 100 (complete control)
Procedure, shortened: as §2

[13] = tested on: bindweed; assay: Herbicidal activity test against upland field weeds (foliar treatment test); set-up: key to Foliar treatment herbicidal activity, Bindweed: 0 (no control); 100 (complete control); conditions: scale 0-100
Procedure, shortened: as §1

[14] = 50 g ai/ha, Wheat (7 days after treatment)
[15] = 50 g ai/ha, Wheat (14 days after treatment)
[16] = 100 g ai/ha, Wheat (7 days after treatment)
[17] = 100 g ai/ha, Wheat (14 days after treatment)
[18] = 50 g ai/ha, Cotton (7 days after treatment)
[19] = 50 g ai/ha, Cotton (14 days after treatment)
[20] = 100 g ai/ha, Cotton (7 days after treatment)
[21] = 100 g ai/ha, Cotton (14 days after treatment)
[22] = 50 g ai/ha, Corn (7 days after treatment)
[23] = 50 g ai/ha, Corn (14 days after treatment)
[24] = 100 g ai/ha, Corn (7 days after treatment)
[25] = 100 g ai/ha, Corn (14 days after treatment)
[26] = 50 g ai/ha, Soybean (7 days after treatment)
[27] = 50 g ai/ha, Soybean (14 days after treatment)
[28] = 100 g ai/ha, Soybean (7 days after treatment)
[29] = 100 g ai/ha, Soybean (14 days after treatment)
[30] = Abutilon theophrasti, 50 g ai/ha, scale 0-100, read-out: Foliar treatment herbicidal activity, velvet leaf

## Cn1nnnc1NC(=O)c1ccc(C(F)(F)F)nc1OCc1nnnn1C(F)F [Compound No. 1-26, 2-((1-(difluoromethyl)-1H-tetrazol-5-yl)methoxy)-N-(1-methyl-1H-tetrazol-5-yl)-6-(trifluoromethyl)nicotinamide]
[1]; Digitaria sanguinalis
  pest or weed control at 50 g/ha: 98%
[2]; 50 g ai/ha
  Soil treatment herbicidal activity, Bindweed: 0
[3]; [14]
  Foliar treatment phytotoxicity, Wheat: 0
[3]; [15]
  Foliar treatment phytotoxicity, Wheat: 0
[3]; [16]
  Foliar treatment phytotoxicity, Wheat: 1
[3]; [17]
  Foliar treatment phytotoxicity, Wheat: 2
[4]; [18]
  Foliar treatment phytotoxicity, Cotton: 2
[4]; [19]
  Foliar treatment phytotoxicity, Cotton: 6
[4]; [20]
  Foliar treatment phytotoxicity, Cotton: 4
[4]; [21]
  Foliar treatment phytotoxicity, Cotton: 9
[5]; [22]
  Foliar treatment phytotoxicity, Corn: 1
[5]; [23]
  Foliar treatment phytotoxicity, Corn: 0
[5]; [24]
  Foliar treatment phytotoxicity, Corn: 2
[5]; [25]
  Foliar treatment phytotoxicity, Corn: 2
[6]; 50 g ai/ha, Rice (7 days after treatment)
  Foliar treatment phytotoxicity, Rice: 3
[6]; 50 g ai/ha, Rice (14 days after treatment)
  Foliar treatment phytotoxicity, Rice: 6
[6]; 100 g ai/ha, Rice (7 days after treatment)
  Foliar treatment phytotoxicity, Rice: 4
[6]; 100 g ai/ha, Rice (14 days after treatment)
  Foliar treatment phytotoxicity, Rice: 7
[7]; [26]
  Foliar treatment phytotoxicity, Soybean: 5
[7]; [27]
  Foliar treatment phytotoxicity, Soybean: 5
[7]; [28]
  Foliar treatment phytotoxicity, Soybean: 5
[7]; [29]
  Foliar treatment phytotoxicity, Soybean: 5
[8]; 50 g ai/ha
  Soil treatment herbicidal activity, barnyard grass: 100
[9]; Xanthium strumarium
  pest or weed control at 50 g/ha: 70%
[10]; [30]
  pest or weed control at 50 g/ha: 50%
[11]; 50 g ai/ha
  pest or weed control at 50 g/ha: 70%
[12]; 50 g ai/ha
  Soil treatment herbicidal activity, quack grass: 0
[13]; 50 g ai/ha
  pest or weed control at 50 g/ha: 60%

## CN(Cc1nnn(C)n1)c1nc(C(F)(F)F)ccc1C(=O)Nc1nnnn1C [Compound No. 2-26, 2-(methyl((2-methyl-2H-tetrazol-5-yl)methyl)amino)-N-(1-methyl-1H-tetrazol-5-yl)-6-(trifluoromethyl)nicotinamide]
[1]; Digitaria sanguinalis, 75 g ai/ha
  pest or weed control at 75 g/ha: 95%
[2]; 75 g ai/ha
  Soil treatment herbicidal activity, Bindweed: 100
[3]; [14]
  Foliar treatment phytotoxicity, Wheat: 1
[3]; [15]
  Foliar treatment phytotoxicity, Wheat: 0
[3]; [16]
  Foliar treatment phytotoxicity, Wheat: 1
[3]; [17]
  Foliar treatment phytotoxicity, Wheat: 0
[4]; [18]
  Foliar treatment phytotoxicity, Cotton: 1
[4]; [19]
  Foliar treatment phytotoxicity, Cotton: 4
[4]; [20]
  Foliar treatment phytotoxicity, Cotton: 2
[4]; [21]
  Foliar treatment phytotoxicity, Cotton: 4
[5]; [22]
  Foliar treatment phytotoxicity, Corn: 0
[5]; [23]
  Foliar treatment phytotoxicity, Corn: 0
[5]; [24]
  Foliar treatment phytotoxicity, Corn: 0
[5]; [25]
  Foliar treatment phytotoxicity, Corn: 0
[7]; [26]
  Foliar treatment phytotoxicity, Soybean: 3
[7]; [27]
  Foliar treatment phytotoxicity, Soybean: 9
[7]; [28]
  Foliar treatment phytotoxicity, Soybean: 4
[7]; [29]
  Foliar treatment phytotoxicity, Soybean: 9
[8]; 75 g ai/ha
  Soil treatment herbicidal activity, barnyard grass: 100
[9]; Xanthium strumarium, 75 g ai/ha
  pest or weed control at 75 g/ha: 98%
[10]; Abutilon theophrasti, 75 g ai/ha, scale 0-100, read-out: Foliar treatment herbicidal activity, velvet leaf
  pest or weed control at 75 g/ha: 98%
[11]; 75 g ai/ha
  pest or weed control at 75 g/ha: 90%
[12]; 75 g ai/ha
  Soil treatment herbicidal activity, quack grass: 0
[13]; 75 g ai/ha
  pest or weed control at 75 g/ha: 95%

## Cn1nnc(CS(=O)(=O)Cc2nc(C(F)(F)F)ccc2C(=O)Nc2nnnn2C)n1 [Compound No. 2-105, N-(1-methyl-1H-tetrazol-5-yl)-2-((((2-methyl-2H-tetrazol-5-yl)methyl)sulfonyl)methyl)-6-(trifluoromethyl)nicotinamide]
[1]; Digitaria sanguinalis
  pest or weed control at 50 g/ha: 30%
[2]; 50 g ai/ha
  pest or weed control at 50 g/ha: 30%
[3]; [14]
  Foliar treatment phytotoxicity, Wheat: 3
[3]; [15]
  Foliar treatment phytotoxicity, Wheat: 4
[3]; [16]
  Foliar treatment phytotoxicity, Wheat: 4
[3]; [17]
  Foliar treatment phytotoxicity, Wheat: 4
[5]; [22]
  Foliar treatment phytotoxicity, Corn: 0
[5]; [23]
  Foliar treatment phytotoxicity, Corn: 0
[5]; [24]
  Foliar treatment phytotoxicity, Corn: 0
[5]; [25]
  Foliar treatment phytotoxicity, Corn: 0
[8]; 50 g ai/ha
  Soil treatment herbicidal activity, barnyard grass: 0
[9]; Xanthium strumarium
  pest or weed control at 50 g/ha: 98%
[10]; [30]
  pest or weed control at 50 g/ha: 90%
[11]; 50 g ai/ha
  pest or weed control at 50 g/ha: 95%
[12]; 50 g ai/ha
  Soil treatment herbicidal activity, quack grass: 0
[13]; 50 g ai/ha
  pest or weed control at 50 g/ha: 80%

## Cn1nnc(CSCc2nc(C(F)F)ccc2C(=O)Nc2nnnn2C)n1 [Compound No. 2-108, 6-(difluoromethyl)-N-(1-methyl-1H-tetrazol-5-yl)-2-((((2-methyl-2H-tetrazol-5-yl)methyl)thio)methyl)nicotinamide]
[1]; Digitaria sanguinalis
  pest or weed control at 50 g/ha: 60%
[2]; 50 g ai/ha
  Soil treatment herbicidal activity, Bindweed: 0
[3]; [14]
  Foliar treatment phytotoxicity, Wheat: 3
[3]; [15]
  Foliar treatment phytotoxicity, Wheat: 3
[3]; [16]
  Foliar treatment phytotoxicity, Wheat: 4
[3]; [17]
  Foliar treatment phytotoxicity, Wheat: 4
[5]; [22]
  Foliar treatment phytotoxicity, Corn: 0
[5]; [23]
  Foliar treatment phytotoxicity, Corn: 0
[5]; [24]
  Foliar treatment phytotoxicity, Corn: 0
[5]; [25]
  Foliar treatment phytotoxicity, Corn: 0
[8]; 50 g ai/ha
  Soil treatment herbicidal activity, barnyard grass: 0
[9]; Xanthium strumarium
  pest or weed control at 50 g/ha: 98%
[10]; [30]
  pest or weed control at 50 g/ha: 30%
[11]; 50 g ai/ha
  pest or weed control at 50 g/ha: 80%
[12]; 50 g ai/ha
  Soil treatment herbicidal activity, quack grass: 0
[13]; 50 g ai/ha
  pest or weed control at 50 g/ha: 90%

## Cn1nnc(CSCc2nc(C(F)(F)F)ccc2C(=O)N(C(=O)c2ccccc2)c2nnnn2C)n1 [Compound No. 2-109, N-benzoyl-N-(1-methyl-1H-tetrazol-5-yl)-2-((((2-methyl-2H-tetrazol-5-yl)methyl)thio)methyl)-6-(trifluoromethyl)nicotinamide]
[1]
  Foliar treatment herbicidal activity, Crabgrass: 100
[2]; 50 g ai/ha
  Soil treatment herbicidal activity, Bindweed: 0
[3]; [14]
  Foliar treatment phytotoxicity, Wheat: 2
[3]; [15]
  Foliar treatment phytotoxicity, Wheat: 2
[3]; [16]
  Foliar treatment phytotoxicity, Wheat: 3
[3]; [17]
  Foliar treatment phytotoxicity, Wheat: 3
[5]; [22]
  Foliar treatment phytotoxicity, Corn: 0
[5]; [23]
  Foliar treatment phytotoxicity, Corn: 0
[5]; [24]
  Foliar treatment phytotoxicity, Corn: 0
[5]; [25]
  Foliar treatment phytotoxicity, Corn: 0
[8]; 50 g ai/ha
  Soil treatment herbicidal activity, barnyard grass: 0
[9]
  Foliar treatment herbicidal activity, Cocklebur: 100
[10]; [30]
  pest or weed control at 50 g/ha: 80%
[11]; 50 g ai/ha
  pest or weed control at 50 g/ha: 98%
[12]; 50 g ai/ha
  Soil treatment herbicidal activity, quack grass: 0
[13]; 50 g ai/ha
  pest or weed control at 50 g/ha: 98%

## CCOC(=O)OC(C)n1nnn(C)c1=NC(=O)c1ccc(C(F)(F)F)nc1CSCc1nnn(C)n1 (centres unmarked) [Compound No. 4-10, ethyl (1-(4-methyl-5-((2-((((2-methyl-2H-tetrazol-5-yl)methyl)thio)methyl)-6-(trifluoromethyl)nicotinoyl)imino)-4,5-dihydro-1H-tetrazol-1-yl)ethyl)carbonate]
[1]
  Foliar treatment herbicidal activity, Crabgrass: 100
[2]; 50 g ai/ha
  Soil treatment herbicidal activity, Bindweed: 40
[3]; [14]
  Foliar treatment phytotoxicity, Wheat: 0
[3]; [15]
  Foliar treatment phytotoxicity, Wheat: 0
[3]; [16]
  Foliar treatment phytotoxicity, Wheat: 0
[3]; [17]
  Foliar treatment phytotoxicity, Wheat: 0
[5]; [22]
  Foliar treatment phytotoxicity, Corn: 2
[5]; [23]
  Foliar treatment phytotoxicity, Corn: 1
[5]; [24]
  Foliar treatment phytotoxicity, Corn: 3
[5]; [25]
  Foliar treatment phytotoxicity, Corn: 1
[8]; 50 g ai/ha
  Soil treatment herbicidal activity, barnyard grass: 100
[9]
  Foliar treatment herbicidal activity, Cocklebur: 100
[10]; 50 g ai/ha, scale 0-100
  Foliar treatment herbicidal activity, velvet leaf: 100
[11]; 50 g ai/ha
  Foliar treatment herbicidal activity, Indian jointvetch: 98
[12]; 50 g ai/ha
  Soil treatment herbicidal activity, quack grass: 0
[13]; 50 g ai/ha
  Foliar treatment herbicidal activity, Bindweed: 100
